Source: patent US20230233585A1, “USE OF […] OR OF ITS SALT FOR THE TREATMENT OF OSTEOARTHROSIS” (ABIOGEN PHARMA S.P.A., priority 2014, published 2023)

What was measured:
[1] = test system: patients with osteoarthritis; settings: dosages 5, 15, 35 and 50 mg; cited from earlier work
[2] = test system: patients with acute painful knee osteoarthritis (OA); experiment: Pain in the affected knee by VAS (0-100), randomized double-blind placebo-controlled study; format: in vivo; settings: mean ± SD
Source text: (§1) The aim of this randomized, double-blind, placebo-controlled study was to assess the efficacy of intravenous neridronate in controlling pain in patients with acute painful knee osteoarthritis (OA).
(§2) From March 2013 to January 2014, 96 patients older than 50 years and with a recent onset of knee pain were screened. These patients came from the orthopedic and rheumatologic outpatients services and the emergency department of a tertiary care center devoted to bone and joint diseases. Sixty-eight patients were considered eligible to be recruited when they met the following inclusion criteria: 1) knee OA fulfilling the American College of Rheumatology diagnostic criteria; 2) a radiographic Kellgren-Lawrence grading score ≥2 in the tibiofemoral joint; 3) a continuous knee pain by at least 2 weeks with an onset no longer than three months; 4) a pain intensity greater than 30 mm on a Huskisson's visual analog scale ranging from 0 (no pain) to 100 mm (maximal pain); 5) a knee MR scan showing large (>1 cm according to international criteria) BMLs. […] At the time of recruitment, 58 patients out of 68 (85.3%) were taking or had taken drugs to control pain in the previous three months. The patients were asked not to take any analgesics or nonsteroidal anti-inflammatory drugs (NSAIDs) throughout the study period. All patients gave written consent. The study was approved by the Ethics Committee of the hospital where the study was carried out.
(§3) After enrolment, patients were randomized to receive placebo or sodium neridronate (Abiogen, Pisa, Italy) 100 mg/8 ml in vials with an identical appearance in a 1:1 ratio. Both sodium neridronate and placebo were diluted in 500 ml of saline isotonic solution and infused in the morning for over 2 hours. The treatment was administered every third day four times starting from day 1 (first infusion) and ending on day 10 (fourth infusion). Throughout the infusion course, serum calcium was assayed before each infusion. The values were adjusted for albumin value of 4.2 g/dL. After 60 days (57-66) from the first infusion, the last clinical assessment was performed. Two months after the end of the study, patients were interviewed by telephone about a possible relapse of pain and the possible resumption of analgesic drugs and/or NSAIDs.
Primary outcome of the study was the assessment and comparison of changes in pain intensity between the sodium neridronate group and the placebo group along the study. Pain in the affected knee was measured by VAS (0-100) at day 1 (T0), at the day of the last infusion (day 10; T1) and 50 days later (T2). As secondary endpoints, the following clinical assessments were performed: the Western Ontario and MacMaster Universities Osteoarthritis Index (WOMAC) pain questionnaire; the McGill Pain Questionnaire and the 36-Item Short Form Health Survey (SF-36) questionnaire to assess the patient's functional status. All these instruments were administered at T0 and T2. As additional endpoint, changes in WORMS score before the treatment and at T2 have been measured.

[3] = test system: patients with acute painful knee osteoarthritis (OA); experiment: WOMAC pain questionnaire; format: in vivo; settings: mean ± SD
Source text: as §1
(§4) From March 2013 to January 2014, 96 patients older than 50 years and with a recent onset of knee pain were screened. These patients came from the orthopedic and rheumatologic outpatients services and the emergency department of a tertiary care center devoted to bone and joint diseases. […]
(§5) Primary outcome of the study was the assessment and comparison of changes in pain intensity between the sodium neridronate group and the placebo group along the study. Pain in the affected knee was measured by VAS (0-100) at day 1 (T0), at the day of the last infusion (day 10; T1) and 50 days later (T2). […] As additional endpoint, changes in WORMS score before the treatment and at T2 have been measured.

[4] = test system: patients with acute painful knee osteoarthritis (OA); experiment: SF-36 questionnaire (functional status); format: in vivo; settings: mean ± SD
Source text: as §1, §2, §3, §5

[5] = test system: patients with acute painful knee osteoarthritis (OA); experiment: McGill Pain Questionnaire; format: in vivo; settings: mean ± SD
Source text: as §1, §4, §5

[6] = test system: subchondral BMLs in patients with painful knee OA; experiment: Knee MRI, WORMS score for bone marrow edema; format: in vivo; settings: mean ± SD
Procedure: as §3
High resolution, three-dimensional MRI of the target knee was obtained for each patient before the start of the treatment (1-7 days) and at the end of the study (day 58-69). All MR images were evaluated by a skilled musculoskeletal radiologist who was blinded to the patient's treatment. All MR examinations were performed with a 1.5 T scanner (Magnetom Espree, Siemens) using a dedicated knee coil. Imaging was performed on sagittal, coronal and transverse planes, with a field of view (FOV) of 18 cm and a matrix of acquisition of 256×256. The MR protocol included: spin echo (SE) T1-weighted sequences (repetition time TR 580 ms, echo time TE 12 ms, number of signal averages 2, thickness 3.0 mm, intersection gap 0.5 mm) on sagittal, coronal and transverse planes; SE T2-weighted sequences (TR 4.000 ms, TE 30/100 ms, one signal acquired, thickness 3.0 mm, intersection gap 0.5 mm) on sagittal and transverse planes; PD-weighted sequence with fat/suppression (TR 2800 ms, TE 40 ms, one signal acquired, thickness 3.0 mm, intersection gap 0.5 mm) on coronal plane. Subchondral BMLs were identified as areas of increase signal intensity on fat-suppressed T2-weighted images. Scores were assigned using the Whole-Organ MRI score for knee OA (WORMS) for bone marrow edema. […] For each subregion, the extent of the lesion was assessed following the WORMS scale: 0=absence of edema; 1=less than 25%; 2=25-50%; 3=>50%.
as §5

[7] = test system: patients with acute painful knee osteoarthritis (OA); experiment: Telephone interview on resumption of analgesic drugs and/or NSAIDs; format: in vivo; settings: two months after the last clinical evaluation; 4 patients out of 31
Procedure: as §3

[8] = test system: patients with acute painful knee osteoarthritis (OA); experiment: Adverse events during the infusion course; format: in vivo; settings: one patient, after the first infusion
Procedure: as §3
Fifty-six patients completed the study. […] Eight patients in the placebo group were excluded for the resumption of analgesic or NSAIDs treatment during the study (7 patients) and one patient refused to return to be evaluated 50 days after the treatment. […]

[9] = 50 days after the end of treatment (T2), N = 31

SMILES	efficacy of treatment in pain symptoms versus placebo [1]	VAS score ([2]; 50 days after the end of treatment (T2), 100 mg i.v. x4, N = 31)	VAS score ([2]; 50 days after the end of treatment (T2), 100 mg i.v. x4, N = 31, listed as Neridronate)	VAS score ([2]; baseline (day 1, T0), before treatment, N = 34)	VAS score ([2]; baseline (day 1, T0), before treatment, N = 34, listed as Neridronate)	VAS score ([2]; day of the last infusion (day 10, T1), 100 mg i.v. on days 1, 4, 7, 10)	WOMAC [3, 9]	WOMAC ([3]; baseline (T0), N = 34)	SF-36 mental component [4, 9]	SF-36 physical component [4, 9]	SF-36 mental component ([4]; baseline (T0), N = 34)	SF-36 physical component ([4]; baseline (T0), N = 34)	McGill [5, 9]	McGill ([5]; baseline (T0), N = 34)	WORMS score ([6]; T2, MRI at the end of the study, N = 31)	WORMS score ([6]; T2, MRI at the end of the study, N = 31, listed as Neridronate)	WORMS score ([6]; baseline, MRI before the start of treatment, N = 34)	WORMS score ([6]; baseline, MRI before the start of treatment, N = 34, listed as Neridronate)	patients who had resumed symptomatic therapy with analgesic drugs or NSAIDs [7] [%]	adverse event leading to withdrawal of consent [8]
O=P(O)(O)C(O)(Cc1cccnc1)P(=O)(O)O [risedronate]	it was not possible to find any difference	–	–	–	–	–	–	–	–	–	–	–	–	–	–	–	–	–	–	–
NCCCCCC(O)(P(=O)(O)O)P(=O)(O)O [sodium neridronate]	–	9.4±10.8	9.4	59.0±14.7	59.0 ± 14.7	30.4±15.6	58	232 ± 79	62.5	51.1	56.1 ± 12.4	36.6 ± 10.2	3.7	14.3 ± 7.6	3.7±4.2	3.7	6.3±3.0	6.3 ± 3.0	12.9	acute phase reaction
